From PMC7822874, “Chemoprotective antimalarials identified through quantitative high-throughput screening of Plasmodium blood and liver stage parasites” (Scientific Reports, 2021)
Values joined by “and” are separate entries in the source; they are usually repeats but may differ in a detail not shown here. Equal values may be shown once. Read-outs that look alike come from different tables or passages of the source.

Assays:
[1] = test system: P. berghei-ANKA-GFP-LucCON liver stage parasites in HepG2-A16-CD81EGFP cells; assay: P. berghei liver stage Pb-Luc assay, Method 1 (UCSD, 1536-well); type: cell-based, Plasmodium berghei; settings: for Max Resp (signal direction of the dose response): Decrease = decreasing P. berghei viability with dose, Increase = increasing signal, Inactive = no dose response; for activity at 1 µM / activity at 3 µM: 48 h
[2] = in vitro; settings: human, hepg2 cells
[3] = test system: Plasmodium falciparum Dd2 asexual blood stage parasites; assay: microbe, parasite or virus in culture; set-up: species or system Plasmodium falciparum Dd2 in human erythrocytes; single determination (one 11-point concentration-response curve); settings: Plasmodium falciparum, DD2, Erythrocyte, 72 h; read-out: AC50
[4] = test system: HepG2; settings: human, hepg2 cells, 48 h
[5] = test system: luciferase-expressing P. berghei liver stage parasites in HepG2 cells; assay: Inhibition of liver-stage development assay (ILSDA), Method 2 (WRAIR, 96-well); type: cell-based, Plasmodium berghei
[6] = test system: P. falciparum Dd2 Cytb G131S; assay: SYBR Green ABS proliferation assay, NCGC00374598 selected clone C11; type: cell-based, Plasmodium falciparum; settings: Plasmodium falciparum, DD2, cytochrome b mutant line, second value triple, c6; […]; read-out: log AC50, mean (converted)
Procedure: (§1) As resistance selection studies implicated the parasite cytochrome bc1 complex in mediating reduced parasite susceptibility to both NCGC00473217 and NCGC00374598, we leveraged these drug-selected parasites to test for altered drug response to a panel of antimalarial compounds.
(§2) The P. falciparum parasite Dd2 line was cultured in vitro using standard conditions. […] Tissue culture flasks and assay plates were incubated at 37 °C under a gas mixture of 5% CO2, 5% O2 and 90% N2. […] Significant differences were assessed using two-sided Student’s t-tests. All HTS assays were stopped and read at 72 h. Percent response values represent relative growth as judged by SYBR Green-I fluorescence intensity values normalized to controls.
(§3) Fresh uninfected RBCs (0.5% hematocrit) were added on day 7 and media was changed every other day. […] Resistant parasites were maintained under drug media at a volume of 50 mL until a high parasitemia (> 5%) was achieved. Aliquots of the bulk resistant cultures were frozen in cryovials before cloning by limiting dilution in 96-well plates (seeded at 0.25 or 0.5 parasites/well)[70]. After 3 weeks of cloning, we screened for positive wells by flow cytometry with SYBR Green-stained cells. […] Parasites were harvested by saponin lysis at the trophozoite stage and genomic DNA was extracted using the QIAamp DNA Blood Midi Kit (Qiagen, Germantown, MD)[71].

[7] = test system: P. falciparum Dd2 Cytb V259L; assay: SYBR Green ABS proliferation assay, NCGC00473217 selected clone F06; type: cell-based, Plasmodium falciparum; settings: Plasmodium falciparum
Procedure: as §1, §2, §3

[8] = test system: P. falciparum Dd2 Cytb A122D; assay: SYBR Green ABS proliferation assay, NCGC00473217 selected clone F12; type: cell-based, Plasmodium falciparum; settings: Plasmodium falciparum
Procedure: as §1, §2, §3

[9] = test system: T1, Plasmodium falciparum Dd2-attB (parental line), asexual blood stages; assay: microbe, parasite or virus in culture; set-up: replicate k of 3 (each line is one of three independent assays; the three lines of one compound and parasite line follow each other); settings: n = 1
T1 construct: Dd2-attB, the isogenic parental line
Procedure, shortened: (§4)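 Only some compounds were profiled here. Each was assayed three independent times against the Dd2-attB parent and its yeast-DHODH-overexpressing derivative.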

[10] = in vitro; settings: human, HepG2-A16-CD81EGFP cells, uninfected
[11] = test system: T2, Plasmodium falciparum Dd2-attB-ScDHODH (transgenic line expressing yeast DHODH), asexual blood stages; assay: organism not typed; set-up: replicate k of 3 (each line is one of three independent assays; the three lines of one compound and parasite line follow each other); settings: 72 h, n = 1
T2 construct: Dd2-attB-ScDHODH, the transgenic line that expresses yeast DHODH
Procedure, shortened: as §4

[12] = test system: HepG2-A16-CD81EGFP cells; settings: average of 2 wells, repeat 2
[13] = test system: P. falciparum Dd2 (clone B2) asexual blood stage parasites; assay: P. falciparum Dd2 asexual blood stage SYBR Green-I 72 h proliferation assay (qHTS); type: cell-based, Plasmodium falciparum; settings: Plasmodium falciparum, DD2, Dd2 parental; Hill fit, averaged from three independent replicates; top concentration 29 µM; read-out: Average AC50 (Log[M]), Dd2 (converted)
[14] = Method 1, log10 of molar AC50 from Hill fit
[15] = Plasmodium berghei, Method 1, log10 of molar AC50 from Hill fit, read-out: Log AC50 (converted)

## COc1ccc(CCN2CCC(Nc3nc4ccccc4n3Cc3ccc(F)cc3)CC2)cc1 [NCGC00016913-08]
[1]
  AC50: 3.16 µM
[1]; Method 1
  Max Resp (signal direction of the dose response): Decrease
[1]; [14]
  Log AC50 (M): -5.500 M
[1]; [15]
  AC50: 2.82 µM
[2]
  CC50 at 48 h: 34.3 µM
[3]
  AC50: 2.37 µM
[4]
  Log AC50 (M): -4.4643 M
[5]
  Max Resp (signal direction of the dose response): Inactive

## O=C(Nc1ccc2c(c1)[S+](=O)([O-])N=C1CCCN12)c1ccc(F)cc1 [NCGC00537667-01]
[6]
  AC50: 17.8 µM
[7]; DD2, cytochrome b mutant line, third value triple, c9, […], read-out: log AC50, mean (converted)
  AC50: 1.59e-05 M
[8]; DD2, cytochrome b mutant line, fourth value triple, c12, […], read-out: log AC50, mean (converted)
  AC50: 1e-05 M

## Oc1cc(NCc2ccccc2)cc2cccnc12 [NCGC00183793-01]
[9]; 72 h
  Individual replicates / Log AC50 (M): -5.3986 Log AC50 (M) and -5.2986 Log AC50 (M)
[9]; Plasmodium falciparum, DD2, 72 h, read-out: Individual replicates / Log AC50 (M) (converted)
  AC50: 3.56e-06 M
[10]
  viability at 48 h, 1 µM: 91%
  viability at 48 h, 3 µM: 52%
[2]
  CC50 at 48 h: 43.2 µM
[3]
  AC50: 2.99 µM
[11]
  Individual replicates / Log AC50 (M): -5.2486 Log AC50 (M)
[11]; read-out: Individual replicates / Log AC50 (converted)
  AC50: 4.48 µM
[4]
  Log AC50 (M): -4.3643 M

## COc1ccccc1Nc1cnc2ccc(-c3ccc(OC)c(OC)c3)nn12 [NCGC00412573-01]
[12]; nominal 1 uM (10 mM stock), […] for 15 mM, 1.2 uM for 12 mM, 2 uM for 20 mM stock
  HepG2 viability signal, 1 uM, repeat 2: 106.68%
[12]; nominal 3 uM (10 mM stock), 4.5 uM for 15 mM, 3.6 uM for 12 mM, 6 uM for 20 mM stock
  HepG2 viability signal, 3 uM, repeat 2: 92.36%
[1]; Method 1
  Max Resp (signal direction of the dose response): Decrease
[1]; Method 1, Hill fit, 50% of maximum activity response, read-out: AC50
  AC50: 0.447 µM
[1]; [14]
  Log AC50 (M): -6.350 M
[1]; Plasmodium berghei, nominal 1 uM (10 mM stock), […] for 15 mM, 1.2 uM for 12 mM, 2 uM for 20 mM stock, average of 2 wells, 1536-well plate, repeat 1, read-out: Pb-Luc signal, 1 uM, repeat 1
  activity at 1 µM: 7.11%
[1]; Plasmodium berghei, nominal 1 uM (10 mM stock), […] for 15 mM, 1.2 uM for 12 mM, 2 uM for 20 mM stock, average of 2 wells, 1536-well plate, repeat 2, read-out: Pb-Luc signal, 1 uM, repeat 2
  activity at 1 µM: 51.2%
[1]; Plasmodium berghei, nominal 1 uM (10 mM stock), […] for 15 mM, 1.2 uM for 12 mM, 2 uM for 20 mM stock, average of 2 wells, 1536-well plate, repeat 3, read-out: Pb-Luc signal, 1 uM, repeat 3
  activity at 1 µM: 2.63%
[1]; Plasmodium berghei, nominal 3 uM (10 mM stock), 4.5 uM for 15 mM, 3.6 uM for 12 mM, 6 uM for 20 mM stock, average of 2 wells, 1536-well plate, repeat 1, read-out: Pb-Luc signal, 3 uM, repeat 1
  activity at 3 µM: 1.18%
[1]; Plasmodium berghei, nominal 3 uM (10 mM stock), 4.5 uM for 15 mM, 3.6 uM for 12 mM, 6 uM for 20 mM stock, average of 2 wells, 1536-well plate, repeat 2, read-out: Pb-Luc signal, 3 uM, repeat 2
  activity at 3 µM: 32.2%
[1]; Plasmodium berghei, nominal 3 uM (10 mM stock), 4.5 uM for 15 mM, 3.6 uM for 12 mM, 6 uM for 20 mM stock, average of 2 wells, 1536-well plate, repeat 3, read-out: Pb-Luc signal, 3 uM, repeat 3
  activity at 3 µM: 43.3%
[1]; Plasmodium berghei, Method 1, Hill fit, 50% of maximum activity response, read-out: AC50
  AC50: 0.355 µM
[1]; [15]
  AC50: 0.355 µM
[10]
  viability at 48 h, 1 µM: 108%
  viability at 48 h, 3 µM: 73.1%
[2]
  CC50 at 48 h: 44.4 µM
[3]
  AC50: 1.53 µM
[4]
  Log AC50 (M): -4.3528 M
[5]; P. berghei liver stage, Method 2, dose response
  Activity direction (Decrease / Inactive): Inactive

## Cc1cccc(Nc2nc(NCc3ccco3)c3ccccc3n2)c1 [MLS000662793-01]
[1]; Plasmodium berghei, 1 uM (compounds provided at 10 mM), average of 2 wells on a 1536 well plate, column 11, read-out: Pb-Luc (P. berghei liver stage), % of control, lower concentration, first repeat
  activity at 1 µM: 23%
[1]; Plasmodium berghei, 1 uM (compounds provided at 10 mM), average of 2 wells on a 1536 well plate, column 12, read-out: Pb-Luc (P. berghei liver stage), % of control, lower concentration, second repeat
  activity at 1 µM: 19%
[1]; Plasmodium berghei, 3 uM (compounds provided at 10 mM), average of 2 wells on a 1536 well plate, column 8, read-out: Pb-Luc (P. berghei liver stage), % of control, higher concentration, first repeat
  activity at 3 µM: 13%
[1]; Plasmodium berghei, 3 uM (compounds provided at 10 mM), average of 2 wells on a 1536 well plate, column 9, read-out: Pb-Luc (P. berghei liver stage), % of control, higher concentration, second repeat
  activity at 3 µM: 11%
[10]
  viability at 48 h, 1 µM: 89%
  viability at 48 h, 3 µM: 74%
[2]
  CC50 at 48 h: 43.2 µM
[3]
  AC50: 4.73 µM
[4]
  Log AC50 (M): -4.3643 M
[5]; Method 2, Decrease = decreasing P. berghei viability with dose, Increase = increasing signal, Inactive = no dose response
  Max Resp (signal direction of the dose response): Inactive

## CCCN1C(CC(C)C)=N[S+](=O)([O-])c2cc(NC(=O)C3CCCO3)ccc21 (stereo not shown) [NCGC00521155-01]
[13]
  AC50: 1.26e-05 M
[7]; DD2, […], averaged from three independent replicates, top concentration 29 µM, read-out: Average AC50 (Log[M]), NCGC00473217 clone F06 (Cytb V259L) (converted)
  AC50: 5.97e-06 M
[8]; DD2, […], averaged from three independent replicates, top concentration 29 µM, read-out: Average AC50 (Log[M]), NCGC00473217 clone F12 (Cytb A122D) (converted)
  AC50: 8.93e-06 M
